Measured values taken from patent publication US20240415845A1, “Compositions of Iboga Alkaloids and Methods of Treatment” (priority 2022, published 2024).

Tested on: special operations veterans with combat and/or blast exposure
Assay: Montgomery-Asberg Depression Rating Scale (MADRS), incl. suicidal ideation item Q10
Assay type: in vivo, human
Details: for Suicidal Ideation (MADRS Q10), % Reporting: only participants with non-zero suicidal ideation at baseline (N 14), baseline 100%
Excerpt: The pre-specified primary outcome was change in the World Health Organization Disability Assessment Schedule 2.0 (WHODAS) (Gold L. H. et al., J. Am. Acad. Psychiatry Law 42, 9 (2014)) from baseline to post-treatment, with change from baseline to the one-month follow-up a secondary outcome. Additional pre-specified secondary outcomes included post-treatment changes on the Clinician Administered PTSD Scale (CAPS-5; Weathers, F. W. et al., Psychol. Assess., 30, 383-395 (2018)), Montgomery-Åsberg Depression Rating Scale (MADRS; Montgomery, S. A., Br. J. Psychiatry J. Ment. Sci., 134, 382-389 (1979)) and the Hamilton-Anxiety Rating Scale (HAM-A; Bruss, G. S., et al., Psychiatry Res., 53, 191-202 (1994)). […] An additional dose of magnesium was administered approximately 12 hours later. To assess the significance of post-treatment changes, linear mixed effects (LME) models were used for each outcome measure. False Discovery Rate (FDR; Benjamini, Y. et al., J. R. Stat. Soc. Ser. B Methodol., 57, 289-300 (1995)) was applied to correct for multiple comparisons.
To further assess changes in comorbid psychiatric symptoms identified by the models, mean percent reduction, response rate, and remission rate according to the CAPS-5, MADRS and HAM-A (Table 1) were calculated. Response on the CAPS-5, MADRS, and HAM-A was defined as a reduction of at least 10 points (Mitchell, J. M. et al., Nat. Med. 27, 1025-1033(2021)), 50% (Leucht, S. et al., J. Affect. Disord. 210, 287-293 (2017)), and 50% (McIntyre, A. et al., Depress. Anxiety 24, 487-494 (2007)), respectively; remission as loss of diagnosis and a total score below 12 (Mitchell, J. M. et al. supra), <8 (Leucht, S. et al. supra), and <8(McIntyre, A. et al., supra), respectively.
With subjects in the fasting state, an intravenous infusion of 1 gram of magnesium sulfate was administered 1-2 hours prior to treatment. […] Medical staff (MD, RN, or EMT) were onsite at a ratio of at least 1 staff per 2 patients throughout treatment for monitoring and management, but no specific coaching or psychological support was provided during treatment.
Clinician administered scales included CAPS-5 (Clinician-administered PTSD Scale for DSM-5), which is a gold standard assessment of PTSD symptom severity; MADRS (Montgomery-Asberg Depression Rating Scale), a measure for depressive symptom severity: and Hamilton-Anxiety Rating Scale (HAM-A) (Shear, M. K. et al., Depress. Anxiety 13, 166-178 (2001)) a measure for anxiety symptom severity: SCID-5 (Structured Clinical Interview for DSM-5) Overview for a historical and environmental context of symptom presentation: MINI DSM-5 (Mini International Neuropsychiatric Interview from DSM-5) for a structured psychodiagnostics assessment: BAT-L (Boston Assessment of TBI-Lifetime) for a lifetime history of TBI and blast exposure: and Ohio State University TBI Identification Method (Short Form) for a lifetime history of TBI. MADRS testing provides an indication of depressive symptoms, CAPS-5 provides an indication of PTSD and SIGH-A provides an indication of anxiety. Collectively these overlap to provide indication of mood, concentration, sleep and tension.
The MADRS is a clinician-administered 10-item scale assessing the severity of depression symptoms. Items are rated on a scale of 0 (no abnormality) to 6 (severe) (Montgomery, S. A. et al., Br. J. Psychiatry J. Ment. Sci. 134, 382-389 (1979)). A total score of 0-6 indicates no depression, 7-19 mild depression, 20-34 moderate depression, 35-59 severe depression, and 60+ very severe depressive symptoms (Müller, M. J., J. Affect. Disord. 77, 255-260 (2003)).

[1] = 1-mo. post, only participants meeting relevant MINI diagnostic criteria
[2] = 1-mo. post, only participants with mild TBI
[3] = 1-wk. post, only participants meeting relevant MINI diagnostic criteria
[4] = 1-wk. post, only participants with mild TBI

For `CCC1CC2CC3c4[nH]c5ccc(OC)cc5c4CCN(C2)C13` (stereo not drawn) [ibogaine, Ibogaine], the “MADRS % Reduction vs Baseline” value [1] was 81% ± 21%, the “MADRS Remission Rate” value [1] was 67% and the “MADRS Response Rate” value [1] was 93%. The MADRS score (1-mo. post, only participants meeting relevant MINI diagnostic criteria at baseline (N 15), baseline 31.3 ± 6.5) was 6.4, the “MADRS % Reduction vs Baseline” value [2] was 87% ± 17% and the “MADRS Remission Rate” value [2] was 85%. The “MADRS Response Rate” value [2] was 96%, the MADRS score (1-mo. post, only participants with mild TBI (N 28), baseline 25.2 ± 8.7) was 3.6 and the “Suicidal Ideation (MADRS Q10), % Reporting” value (1-mo. post) was 14%. For the same compound, the MADRS score (1-wk post, only participants meeting relevant MINI diagnostic criteria at baseline (N 15), baseline 31.3 ± 6.5) was 3.6, the “Suicidal Ideation (MADRS Q10), % Reporting” value (1-wk post) was 0% and the “MADRS % Reduction vs Baseline” value [3] was 89% ± 11%. The “MADRS Remission Rate” value [3] was 73%, the “MADRS Response Rate” value [3] was 100% and the “MADRS % Reduction vs Baseline” value [4] was 87% ± 24%. For the same compound, the “MADRS Remission Rate” value [4] was 85%, the “MADRS Response Rate” value [4] was 100% and the MADRS score (1-wk. post, only participants with mild TBI (N 28), baseline 25.2 ± 8.7) was 2.7. The “subjects meeting criteria for remission with a MADRS score of less than 7” value (FIG. 4B) was 82%, the “subjects meeting criteria for response, reduction of more than 50% in MADRS symptom severity” value (FIG. 4B) was 96% and the “MADRS, effect size D” value (baseline vs 1-mo. post, only participants meeting relevant MINI diagnostic criteria (N 15)) was 3.15. The “MADRS, effect size D” value (baseline vs 1-mo. post, only participants with mild TBI (N 28)) was 2.70, the “MADRS, effect size D” value (baseline vs 1-wk post, only participants with mild TBI (N 28)) was 2.55 and the “MADRS, effect size D” value (baseline vs 1-wk. post, only participants meeting relevant MINI diagnostic criteria (N 15)) was 4.11. For the same compound, the “MADRS, effect size D” value (baseline vs one-month post, all participants) was 2.80, the “MADRS, effect size D” value (baseline vs one-week post, all participants) was 2.65 and the “MADRS Remission Rate” value (one-month post, 29 participants, remission = score <8) was 83%. For the same compound, the “MADRS Response Rate” value (one-month post, 29 participants, response = reduction of at least 50%) was 97%, the MADRS score (one-month post, all participants, baseline 25.6 ± 8.7, mean ± SD) was 3.8 and the “MADRS % Reduction vs Baseline” value (one-month post, all participants, mean ± SD) was 87% ± 17%. For the same compound, the “MADRS Remission Rate” value (one-week post, 29 participants, remission = score <8) was 83%, the “MADRS Response Rate” value (one-week post, 29 participants, response = reduction of at least 50%) was 100% and the “MADRS % Reduction vs Baseline” value (one-week post, all participants, mean ± SD) was 87% ± 23%.
